According to US10662203B2, “Pyrido[2,3-b]indole compounds for the treatment and prophylaxis of bacterial infection” (Hoffmann-La Roche Inc., priority 2017, dated 2020):
≈ marks a conversion by molar mass, not a printed value.

Legend:
[1] = test system: K. pneumoniae (ATCC10031); experiment: 50% growth inhibitory concentration (IC50) determination assay; format: cell-based; details: Klebsiella pneumoniae, Iso-Sensitest broth, 0.098 = detection limit
Procedure, shortened: (§1)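 Each strain, inoculated at ~5×10^5 CFU/mL in Iso-Sensitest broth, faces a two-fold compound series spanning 50 to 0.097 μM final concentration. Incubation proceeds at 35±2° C, and cell growth is tracked by absorbance at λ=600 nm every 20 minutes over 16 h.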

S. aureus (ATCC29213) = experiment: as above; format: cell-based; details: Staphylococcus aureus, Iso-Sensitest broth, 0.098 = detection limit
Procedure, shortened: as §1

A. baumannii (ATCC17978) = experiment: as above; format: cell-based; details: Acinetobacter baumannii, ATCC17978, A. baumannii ATCC17978; Iso-Sensitest broth; 0.098 = detection limit
Procedure, shortened: as §1

[2] = Lyophilisation solubility assay (LYSA); format: physicochemical; details: 0.05 M phosphate buffer, HPLC-UV; for solubility thermodynamic: phosphate buffer, pH 6.5, aqueous buffer, thermodynamic from solid
Description: Lyophilisation Solubility Assay (LYSA):
The solubility of compounds of present invention was assessed by LYSA assay. Samples were prepared in duplicate from 10 mM DMSO stock solutions (20 μL) diluted in 30 μL pure DMSO. After evaporation of DMSO with a centrifugal vacuum evaporator, the residue was dissolved in 0.05 M phosphate buffer (150 μL, pH 6.5), which was stirred for one hour and shook for two hours. After one night, the solution was filtered using a microtiter filter plate. Then the filtrate and its 1/10 dilution were analyzed by HPLC-UV.

| Compound | IC50 [1] [µM] | IC50 (S. aureus (ATCC29213)) [µM] | IC50 (A. baumannii (ATCC17978)) [µM] | solubility thermodynamic [2] [µg/mL] | Lysa ([2]; pH 6.5) [µg/mL] |
| --- | --- | --- | --- | --- | --- |
| CNc1cc(F)c(F)c2c1[nH]c1ncc(-c3cnc4c(c3)c(=O)c(C(=O)O)cn4C)c(N3CC[C@@H]4CN(C)C[C@@H]43)c12 [Example 3.03B] | – | – | – | 180 (≈ 322 µM) | – |
| CNc1cc(F)c(F)c2c1[nH]c1ncc(-c3cnc4c(c3)c(=O)c(C(=O)O)cn4NC)c(N3C[C@H]4OCCN(C)[C@H]4C3)c12 [Example 3.13A] | < 0.098 | < 0.098 | 0.152 | – | – |
| CNc1cc(F)c(F)c2c1[nH]c1ncc(-c3cnc4c(c3)c(=O)c(C(=O)O)cn4NC)c(N3C[C@@H]4OCCN(C)[C@@H]4C3)c12 [Example 3.13B] | < 0.098 | < 0.098 | 0.16 | – | – |
| CNc1cc(F)c(F)c2c1[nH]c1ncc(-c3cnc4c(c3)c(=O)c(C(=O)O)cn4C)c(N3C[C@H]4OCCN(C)[C@H]4C3)c12 [Example 3.14A] | < 0.098 | < 0.098 | 0.075 | – | – |
| CNc1cc(F)c(F)c2c1[nH]c1ncc(-c3cnc4c(c3)c(=O)c(C(=O)O)cn4C)c(N3C[C@@H]4OCCN(C)[C@@H]4C3)c12 [Example 3.14B] | < 0.098 | < 0.098 | 0.103 | – | – |
| CNc1cc(Cl)cc2c1[nH]c1ncc(-c3cnc4c(c3)c(=O)c(C(=O)O)cn4C)c(N3C[C@H]4CCN(C)[C@H]4C3)c12 [Example 3.15A] | < 0.098 | < 0.098 | 0.208 | – | – |
| CNc1cc(Cl)cc2c1[nH]c1ncc(-c3cnc4c(c3)c(=O)c(C(=O)O)cn4C)c(N3C[C@@H]4CCN(C)[C@@H]4C3)c12 [Example 3.15B] | < 0.098 | < 0.098 | 0.094 | – | – |
| CNc1cc(F)c(F)c2c1[nH]c1ncc(-c3cnc4c(c3)c(=O)c(C(=O)O)cn4C)c(N3CC[C@@]4(CN(C)CCO4)C3)c12 [Example 3.16A] | < 0.098 | < 0.098 | 0.161 | – | – |
| CNc1cc(F)c(F)c2c1[nH]c1ncc(-c3cnc4c(c3)c(=O)c(C(=O)O)cn4C)c(N3CC[C@]4(CN(C)CCO4)C3)c12 [Example 3.16B] | < 0.098 | < 0.098 | 0.19 | – | – |
| CNc1cc(F)cc2c1[nH]c1ncc(-c3cnc4c(c3)c(=O)c(C(=O)O)cn4C)c(N3C[C@H]4OCCN(C)[C@H]4C3)c12 [Example 3.22A] | < 0.098 | < 0.098 | 0.363 | – | – |
| CNc1cc(F)cc2c1[nH]c1ncc(-c3cnc4c(c3)c(=O)c(C(=O)O)cn4C)c(N3C[C@@H]4OCCN(C)[C@@H]4C3)c12 [Example 3.22B] | < 0.098 | < 0.098 | 0.256 | – | – |
| CNc1cc(F)c(F)c2c1[nH]c1ncc(-c3cnc4c(c3)c(=O)c(C(=O)O)cn4C)c(N3C[C@@H]4OCCN(C)[C@H]4C3)c12 [Example 3.24A] | < 0.098 | < 0.098 | 0.315 | – | – |
| CNc1cc(F)c(F)c2c1[nH]c1ncc(-c3cnc4c(c3)c(=O)c(C(=O)O)cn4C)c(N3C[C@@H]4[C@@H](C3)OCCN4C)c12 [Example 3.24B] | < 0.098 | < 0.098 | 0.371 | – | – |
| CNc1cc(F)c(F)c2c1[nH]c1ncc(-c3cnc4c(c3)c(=O)c(C(=O)O)cn4C)c(N3CCO[C@H](CN(C)C)C3)c12 [Example 4.02A, (R)-6-(4-(2-((dimethylamino)methyl)morpholino)-5,6-difluoro-8-(methylamino)-9H-pyrido[2,3-b]indol-3-yl)-1-methyl-4-oxo-1,4-dihydro-1,8-naphthyridine-3-carboxylic acid] | < 0.098 | 0.197 | 0.437 | – | – |
| CNc1cc(F)c(F)c2c1[nH]c1ncc(-c3cnc4c(c3)c(=O)c(C(=O)O)cn4C)c(N3CCO[C@@H](CN(C)C)C3)c12 [Example 4.02B, (S)-6-(4-(2-((dimethylamino)methyl)morpholino)-5,6-difluoro-8-(methylamino)-9H-pyrido[2,3-b]indol-3-yl)-1-methyl-4-oxo-1,4-dihydro-1,8-naphthyridine-3-carboxylic acid] | < 0.098 | 0.207 | 0.408 | – | – |

Continued, values first:

| IC50 [1] [µM] | IC50 (S. aureus (ATCC29213)) [µM] | IC50 (A. baumannii (ATCC17978)) [µM] | solubility thermodynamic [2] [µg/mL] | Lysa ([2]; pH 6.5) [µg/mL] | Compound |
| --- | --- | --- | --- | --- | --- |
| < 0.098 | < 0.098 | 0.295 | 366 (≈ 621 µM) | – | CNc1cc(F)c(F)c2c1[nH]c1ncc(-c3cnc4c(c3)c(=O)c(C(=O)O)cn4COC)c(N3CC[C@H]4CN(C)C[C@H]43)c12 (relative stereo) [Example 5.06, 6-[4-[cis-5-methyl-2,3,3a,4,6,6a-hexahydropyrrolo[2,3-c]pyrrol-1-yl]-5,6-difluoro-8-(methylamino)-9H-pyrido[2,3-b]indol-3-yl]-1-(methoxymethyl)-4-oxo-1,8-naphthyridine-3-carboxylic acid] |
| 0.101 | < 0.098 | 0.935 | 32 (≈ 55.6 µM) | – | CCN1CCCC1Cn1cc(C(=O)O)c(=O)c2cc(-c3cnc4[nH]c5c(NC)cc(F)c(F)c5c4c3N(C)C)cnc21 (centres unmarked) [Example 1.04] |
| – | – | – | 389 (≈ 693 µM) | – | CNc1cc(F)c(F)c2c1[nH]c1ncc(-c3cnc4c(c3)c(=O)c(C(=O)O)cn4C)c(N3CCC[C@@H]3CN(C)C)c12 [Example 1.13] |
| < 0.098 | < 0.098 | 0.289 | 485 (≈ 803 µM) | – | CNc1cc(F)c(F)c2c1[nH]c1ncc(-c3cnc4c(c3)c(=O)c(C(=O)O)cn4C)c(N3CC4C(CN(C)C)CO[C@@H]4C3)c12 (some centres unmarked) [Example 1.88] |
| < 0.098 | < 0.098 | 0.14 | 88 (≈ 153 µM) | – | CNc1cc(F)cc2c1[nH]c1ncc(-c3cnc4c(c3)c(=O)c(C(=O)O)cn4NC)c(N3CCC(F)(CN(C)C)C3)c12 (centres unmarked) [Example 1.92] |
| < 0.098 | < 0.098 | 0.094 | 105 (≈ 177 µM) | – | CNc1cc(F)c(F)c2c1[nH]c1ncc(-c3cnc4c(c3)c(=O)c(C(=O)O)cn4NC)c(N3CCC(F)(CN(C)C)C3)c12 (centres unmarked) [Example 1.93] |
| < 0.098 | < 0.098 | 0.269 | 169 (≈ 280 µM) | – | CNc1cc(F)c(F)c2c1[nH]c1ncc(-c3cnc4c(c3)c(=O)c(C(=O)O)cn4C)c(N3CC[C@H]4CN(CCOC)CC43)c12 (some centres unmarked) [Example 1.96] |
| – | – | 0.13 | 11 (≈ 19.7 µM) | – | CNc1c(F)c(F)cc2c1[nH]c1ncc(-c3cnc4c(c3)c(=O)c(C(=O)O)cn4C)c(N3CC[C@H]4CN(C)CC43)c12 (some centres unmarked) [Example 1.103] |
| – | – | 0.23 | – | 49 | CNc1cc(F)c(F)c2c1[nH]c1ncc(-c3cnc4c(c3)c(=O)c(C(=O)O)cn4C)c(N3C[C@H](OC)[C@@H](N(C)C)C3)c12 [Example 1.158] |
| – | – | 0.267 | 73 (≈ 130 µM) | – | CNc1cc(F)c(F)c2c1[nH]c1ncc(-c3cnc4c(c3)c(=O)c(C(=O)O)cn4C)c(N3CCN4CCC[C@H]4C3)c12 [Example 1.219] |
| – | – | 0.141 | 79 (≈ 141 µM) | – | CNc1cc(F)c(F)c2c1[nH]c1ncc(-c3cnc4c(c3)c(=O)c(C(=O)O)cn4C)c(N3CCN4CCC[C@@H]4C3)c12 [Example 1.220] |
| – | – | – | 55 (≈ 93.1 µM) | – | CNc1cc(F)c(F)c2c1[nH]c1ncc(-c3cnc4c(c3)c(=O)c(C(=O)O)cn4NC)c(N3CC4OCCN(C)C4C3)c12 (centres unmarked) [Example 1.236] |
| – | – | – | 254 (≈ 432 µM) | – | CNc1cc(F)c(F)c2c1[nH]c1ncc(-c3cnc4c(c3)c(=O)c(C(=O)O)cn4NC)c(N3CCC4CN(C)CCC43)c12 (centres unmarked) [Example 1.244] |
| < 0.098 | < 0.098 | 0.562 | – | – | CNc1cc(F)c(F)c2c1[nH]c1ncc(-c3cnc4c(c3)c(=O)c(C(=O)O)cn4C3CCN(C)C3)c(N3CCC(F)(F)C3)c12 (centres unmarked) [Example 2.03] |
| – | – | – | 174 (≈ 310 µM) | – | CNc1cc(F)c(F)c2c1[nH]c1ncc(-c3cnc4c(c3)c(=O)c(C(=O)O)cn4N)c(N3CC[C@H]4CN(C)CC43)c12 (some centres unmarked) [Example 5.02] |
| 0.275 | < 0.098 | 0.745 | – | – | CNc1cc(F)c(F)c2c1[nH]c1ncc(-c3cnc4c(c3)c(=O)c(C(=O)O)cn4NCC(F)(F)F)c(N(C)C)c12 [Example 5.03, 6-(4-(dimethylamino)-5,6-difluoro-8-(methylamino)-9H-pyrido[2,3-b]indol-3-yl)-4-oxo-1-((2,2,2-trifluoroethyl)amino)-1,4-dihydro-1,8-naphthyridine-3-carboxylic acid] |
| – | – | – | 250 (≈ 461 µM) | – | CNc1cc(F)cc2c1[nH]c1ncc(-c3cnc4c(c3)c(=O)c(C(=O)O)cn4N)c(N3CC[C@H]4CN(C)CC43)c12 (some centres unmarked) [Example 5.05] |
| 0.118 | < 0.098 | 0.257 | – | – | CNc1cc(F)c(F)c2c1[nH]c1ncc(-c3cnc4c(c3)c(=O)c(C(=O)O)cn4C)c(N3CCC4(C[C@@H]4N(C)C)C3)c12 (stereo partly drawn) [Example 6.01, 6-(4-(trans-2-(Dimethylamino)-5-azaspiro[2.4]heptan-5-yl)-5,6-difluoro-8-(methylamino)-9H-pyrido[2,3-b]indol-3-yl)-1-methyl-4-oxo-1,4-dihydro-1,8-naphthyridine-3-carboxylic acid] |
| 0.166 | < 0.098 | 0.389 | – | – | CNc1cc(F)c(F)c2c1[nH]c1ncc(-c3cnc4c(c3)c(=O)c(C(=O)O)cn4C)c(N3CCC4(C[C@H]4N(C)C)C3)c12 (stereo partly drawn) [Example 6.02, 6-(4-cis-(2-(dimethylamino)-5-azaspiro[2.4]heptan-5-yl)-5,6-difluoro-8-(methylamino)-9H-pyrido[2,3-b]indol-3-yl)-1-methyl-4-oxo-1,4-dihydro-1,8-naphthyridine-3-carboxylic acid] |
